This is an account of results in US20240217968A1, “PHARMACEUTICAL COMPOUND” (DUKE STREET BIO LIMITED, priority 2021, published 2024).

The IC50 is the point on the concentration scale where inhibition reaches its midpoint.

This assay concerns the target T1, recombinant human Flag-tagged PARP7 (amino acids 456-657) (Homo sapiens, UniProt Q7Z3E1).
T1 construct: recombinant human Flag-tagged PARP7 (amino acids 456-657)
T1 sequence (Q7Z3E1 456-657): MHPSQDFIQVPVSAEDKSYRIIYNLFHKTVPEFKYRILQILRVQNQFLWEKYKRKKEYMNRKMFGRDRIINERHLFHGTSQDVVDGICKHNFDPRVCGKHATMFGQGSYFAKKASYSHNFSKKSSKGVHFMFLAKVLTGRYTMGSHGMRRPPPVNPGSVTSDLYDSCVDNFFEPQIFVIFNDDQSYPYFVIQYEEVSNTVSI
Nature of the assay: PARP7 biochemical DELFIA assay (auto-MARylation). The note with it: DELFIA readout, IC50 class. The protocol: A suitable assay may be conducted using 10-30 nM PARP7 (amino acids 456-657), 2 μM biotin-NAD assay solution in 20 mM HEPES (pH 7.5), 100 mM NaCl, 2 mM DTT, 0.1% BSA (w/v), 0.02% Tween (v/v) assay buffer. MARylation may take place for 2-3 h at room temperature and may be detected using a dissociation-enhanced lanthanide fluorescence immunoassay (DELFIA) readout. This assay format has been recently utilised for screening for modulators of PARP7 and other MonoPARP enzymes ([…]. et al. Forced Self-Modification Assays as a Strategy to Screen MonoPARP Enzymes. SLAS Discovery. 25; 241-252, (2020)). A particularly suitable assay is described in the Examples below. Optiplate HB 384-well plates were coated with anti-FLAG antibody, supplied as a 4 mg/ml solution, using a Na2CO3/HCO3 coating buffer at pH 9.6, overnight at 4° C., in order to achieve a final immobilisation per well of 0.3 μg. Wells were then washed 3× in coating wash buffer (PBS/0.05% Tween (v/v)), blocked with 2% BSA (w/v) in coating wash buffer and washed 3 further times prior to assay. For the assay 20 μl of 12.5-37.5 nM recombinant human Flag-tagged PARP7 (amino acids 456-657) was added to each well of the 384-well plate for 30 min at room temperature. 50 nl of test compound in DMSO was added using pintool technology and plates were incubated for a further 30 min at room temperature. 5 μl of 15 μM biotin-NAD^+ assay solution in 20 mM HEPES (pH 7.5), 100 mM NaCl, 2 mM DTT, 0.1% BSA (w/v), 0.02% Tween (v/v) assay buffer was then added and MARylation proceeded for 2-3 h at room temperature prior to the addition of 5 μl of 12 mM NAD^+ quenching solution. After 30 min at room temperature, assay solution was removed and following washing 5 times, 100 μl of a 1:1000 dilution of DELFIA Eu-N1 Streptavidin reagent was added. Plates were then incubated for 30 min at room temperature. Reaction mixture was removed and plates washed 5 times prior to the addition of 25 μl DELFIA enhancement solution. Following incubation for 30 min at room temperature, fluorescence was read on either an Envision or Pherastar FS (Ex337 nm, Em620 nm).

For the compound `CC(COCCC(=O)N1CCN(c2nc(C#N)co2)CC1)n1nc(C(F)(F)F)c2c(=O)[nH]ncc21` (single isomer, unassigned) [Compound 318], the IC50 is 0.1 to 1 µM.
The result for `CC(COCCC(=O)N1CCN(c2nc(C#N)co2)CC1)n1nc(C(F)(F)F)c2c(=O)[nH]ncc21` (single isomer, unassigned) [Compound 319] reads ≤ 0.1 µM.
Turning to `CC(COCCC(=O)N1CCN(c2ncc(C#N)cn2)CC1)n1nc(C(F)(F)F)c2c(=O)[nH]ncc21` (single isomer, unassigned) [Compound 321, 2-(4-(3-(2-(4-oxo-3-(trifluoromethyl)-4,5-dihydro-1H-pyrazolo[3,4-d]pyridazin-1-yl)propoxy)propanoyl)piperazin-1-yl) pyrimidine-5-carbonitrile], the IC50 is ≤ 0.1 µM.
The result for `CC(COCCC(=O)N1CCN(c2ncc(C#N)cn2)CC1)n1nc(C(F)(F)F)c2c(=O)[nH]ncc21` (single isomer, unassigned) [Compound 322, 2-(4-(3-(2-(4-oxo-3-(trifluoromethyl)-4,5-dihydro-1H-pyrazolo[3,4-d]pyridazin-1-yl)propoxy)propanoyl)piperazin-1-yl) pyrimidine-5-carbonitrile] reads ≤ 0.1 µM; that for `CC(COCCC(=O)N1CCN(c2cnc(C(F)F)cn2)CC1)n1nc(C(F)(F)F)c2c(=O)[nH]ncc21` (single isomer, unassigned) [Compound 323], ≤ 0.1 µM.
As to `CC(COCCC(=O)N1CCN(c2cnc(C(F)F)cn2)CC1)n1nc(C(F)(F)F)c2c(=O)[nH]ncc21` (single isomer, unassigned) [Compound 324], the IC50 was ≤ 0.1 µM.
Consider `CNC(=O)c1cnc(N2CCN(C(=O)CCOCC(C)n3nc(C(F)(F)F)c4c(=O)[nH]ncc43)CC2)nc1` (single isomer, unassigned) [Compound 326], for which the IC50 was ≤ 0.1 µM.
The result for `CC(CCOCC(=O)N1CCN(c2ncc(C(F)(F)F)cn2)CC1)n1nc(C(F)(F)F)c2c(=O)[nH]ncc21` (single isomer, unassigned) [Compound 327, 1-(4-(2-oxo-2-(4-(5-(trifluoromethyl)pyrimidin-2-yl)piperazin-1-yl)ethoxy)butan-2-yl)-3-(trifluoromethyl)-1,5-dihydro-4H-pyrazolo[3,4-d]pyridazin-4-one] reads ≤ 0.1 µM.
Consider `CC(CCOCC(=O)N1CCN(c2ncc(C(F)(F)F)cn2)CC1)n1nc(C(F)(F)F)c2c(=O)[nH]ncc21` (single isomer, unassigned) [Compound 328, 1-(4-(2-oxo-2-(4-(5-(trifluoromethyl)pyrimidin-2-yl)piperazin-1-yl)ethoxy)butan-2-yl)-3-(trifluoromethyl)-1,5-dihydro-4H-pyrazolo[3,4-d]pyridazin-4-one], for which the IC50 was ≤ 0.1 µM.
With `COc1cnc(N2CCN(C(=O)CCOCC(C)n3nc(C(F)(F)F)c4c(=O)[nH]ncc43)CC2)nc1` (single isomer, unassigned) [Compound 331], the IC50 is ≤ 0.1 µM.
On to `COc1cnc(N2CCN(C(=O)CCOCC(C)n3nc(C(F)(F)F)c4c(=O)[nH]ncc43)CC2)nc1` (single isomer, unassigned) [Compound 332], for which the IC50 was ≤ 0.1 µM.
The result for `Cc1nn(C(C)COCCC(=O)N2CCN(c3ncc(Cl)cn3)CC2)c2cn[nH]c(=O)c12` (single isomer, unassigned) [Compound 335] reads ≤ 0.1 µM; that for `CCC(COCCC(=O)N1CCN(c2ncc(C(F)(F)F)cn2)CC1)n1cc(C(F)(F)F)c2c(=O)[nH]ncc21` (single isomer, unassigned) [Compound 338], ≤ 0.1 µM; that for `CCC(COCCC(=O)N1CCN(c2ncc(C(F)(F)F)cn2)CC1)n1cc(C(F)(F)F)c2c(=O)[nH]ncc21` (single isomer, unassigned) [Compound 339], ≤ 0.1 µM.
The result for `CC(COCCC(=O)N1CCN(c2noc(C(F)(F)F)n2)CC1)n1nc(C(F)(F)F)c2c(=O)[nH]ncc21` (single isomer, unassigned) [Compound 344] reads ≤ 0.1 µM; that for `CC(COCCC(=O)N1CCN(c2ncc(F)cc2F)CC1)n1nc(C(F)(F)F)c2c(=O)[nH]ncc21` (single isomer, unassigned) [Compound 350], ≤ 0.1 µM.
Turning to `CC(COCCC(=O)N1CCN(c2ncccc2Cl)CC1)n1nc(C(F)(F)F)c2c(=O)[nH]ncc21` (single isomer, unassigned) [Compound 356], the IC50 was 0.1 to 1 µM.
On to `Cc1c(C)n(C(C)COCCC(=O)N2CCN(c3ncc(C(F)(F)F)cn3)CC2)c2cn[nH]c(=O)c12` (single isomer, unassigned) [Compound 365], for which the IC50 was ≤ 0.1 µM.
With `Cc1c(C)n(C(C)COCCC(=O)N2CCN(c3ncc(C(F)(F)F)cn3)CC2)c2cn[nH]c(=O)c12` (single isomer, unassigned) [Compound 366], the IC50 is ≤ 0.1 µM.
The result for `CC(COCCC(=O)N1CCN(c2ncccc2F)CC1)n1nc(C(F)(F)F)c2c(=O)[nH]ncc21` (single isomer, unassigned) [Compound 368] reads 0.1 to 1 µM; that for `CC1CN(c2ncc(C(F)(F)F)cn2)CCN1C(=O)CCOCCn1cc(C(F)(F)F)c2c(=O)[nH]ncc21` (single isomer, unassigned) [Compound 370], ≤ 0.1 µM.
Regarding `CC1CN(c2ncc(C(F)(F)F)cn2)CCN1C(=O)CCOCCn1cc(C(F)(F)F)c2c(=O)[nH]ncc21` (single isomer, unassigned) [Compound 371], the IC50 was ≤ 0.1 µM.
With `CC(COCCC(=O)N1CCN(c2ccc(Cl)cn2)CC1)n1cc(C(F)(F)F)c2c(=O)[nH]ncc21` (single isomer, unassigned) [Compound 375], the IC50 was ≤ 0.1 µM.
In the case of `CC(COCCC(=O)N1CCN(c2ncc(OC(F)(F)F)cn2)CC1)n1nc(C(F)(F)F)c2c(=O)[nH]ncc21` (single isomer, unassigned) [Compound 387], the IC50 is ≤ 0.1 µM.
The result for `CC(COCCC(=O)N1CCN(c2nnc(C(F)(F)F)[nH]2)CC1)n1nc(C(F)(F)F)c2c(=O)[nH]ncc21` (single isomer, unassigned) [Compound 393] reads ≤ 0.1 µM; that for `CC(COCCC(=O)N1CCN(c2ncc(C(F)(F)F)cn2)CC1)n1cc(C(F)F)c2c(=O)[nH]ncc21` (single isomer, unassigned) [Compound 395, 3-(difluoromethyl)-1-(1-(3-oxo-3-(4-(5-(trifluoromethyl)pyrimidin-2-yl)piperazin-1-yl)propoxy)propan-2-yl)-1,5-dihydro-4H-pyrrolo[2,3-d]pyridazin-4-one], ≤ 0.1 µM.
`CC(COCCC(=O)N1CCN(c2ncc(C(F)(F)F)cn2)CC1)n1cc(C(F)F)c2c(=O)[nH]ncc21` (single isomer, unassigned) [Compound 396, 3-(difluoromethyl)-1-(1-(3-oxo-3-(4-(5-(trifluoromethyl)pyrimidin-2-yl)piperazin-1-yl)propoxy)propan-2-yl)-1,5-dihydro-4H-pyrrolo[2,3-d]pyridazin-4-one]: the IC50 was ≤ 0.1 µM.
In the case of `CC(COCCC(=O)N1CCN(c2ncccc2C#N)CC1)n1nc(C(F)(F)F)c2c(=O)[nH]ncc21` (single isomer, unassigned) [Compound 405], the IC50 was in the range of 0.1 to 1 µM.
The result for `CC(COCCC(=O)N1CCN(c2ncccc2C#N)CC1)n1nc(C(F)(F)F)c2c(=O)[nH]ncc21` (single isomer, unassigned) [Compound 406] reads ≤ 0.1 µM; that for `CC(COCCn1cc(C(F)(F)F)c2c(=O)[nH]ncc21)C(=O)N1CCN(c2ncc(C(F)(F)F)cn2)CC1` (single isomer, unassigned) [Compound 411], ≤ 0.1 µM; that for `CC(COCCC(=O)N1CCN(c2ncc(C#N)cn2)CC1)c1ccc(Cl)c2c(=O)[nH]ncc12` (single isomer, unassigned) [Compound 414], 0.1 to 1 µM.
The result for `CC(COCCC(=O)N1CCN(c2ccc(C#N)cn2)CC1)c1ccc(Cl)c2c(=O)[nH]ncc12` (single isomer, unassigned) [Compound 416] reads ≤ 0.1 µM; that for `CC(COCCC(=O)N1CCN(c2cc(F)c(F)cn2)CC1)n1nc(C(F)(F)F)c2c(=O)[nH]ncc21` (single isomer, unassigned) [Compound 418], ≤ 0.1 µM.
The result for `CC(COCCC(=O)N1CCN(c2cc(F)c(F)cn2)CC1)n1nc(C(F)(F)F)c2c(=O)[nH]ncc21` (single isomer, unassigned) [Compound 419] reads ≤ 0.1 µM.
